Test [1] deals with oestrogen receptor. The note with it: rat uterine cytosol competitive binding assay; J. Med. Chem. 25, 167-171 (1982); cited from earlier work.
Test [2] deals with rat uterine receptor. The note with it: Cancer Research 51, 5851-5858 (1991); cited from earlier work.
The subject of test [3] is MCF-7 human breast cancer cell line. Briefly: Short term in vitro cytotoxicity against MCF-7 human breast cancer cell line. The note with it: MCF7, read-out: Short Term in vitro cytotoxicity MCF-7 IC50 ± SD. Here is the method:
For some compounds, cytotoxicity against the MCF-7 human breast cancer cell line was determined.

Test [4] relates to receptor from calf uterine cytosol. As to conditions: calf uterine cytosol (oestradiol = 100); J. Med. Chem. 32, 2527-2533 (1989); cited from earlier work.
Test [5] addresses calmodulin dependent cAMP-PDE (Homo sapiens, UniProt P0DP23). The test is described as follows: Antagonism of calmodulin dependent cAMP-PDE (inhibiting the activation of cyclic AMP phosphodiesterase by calmodulin). It counts as biochemical.
The target of test [6] is T1, oestrogen receptor (ER) (Rattus norvegicus, UniProt P06211).
T1 construct: from tissue; host or cells: rat uterine cytosol
T1 sequence (P06211 1-600): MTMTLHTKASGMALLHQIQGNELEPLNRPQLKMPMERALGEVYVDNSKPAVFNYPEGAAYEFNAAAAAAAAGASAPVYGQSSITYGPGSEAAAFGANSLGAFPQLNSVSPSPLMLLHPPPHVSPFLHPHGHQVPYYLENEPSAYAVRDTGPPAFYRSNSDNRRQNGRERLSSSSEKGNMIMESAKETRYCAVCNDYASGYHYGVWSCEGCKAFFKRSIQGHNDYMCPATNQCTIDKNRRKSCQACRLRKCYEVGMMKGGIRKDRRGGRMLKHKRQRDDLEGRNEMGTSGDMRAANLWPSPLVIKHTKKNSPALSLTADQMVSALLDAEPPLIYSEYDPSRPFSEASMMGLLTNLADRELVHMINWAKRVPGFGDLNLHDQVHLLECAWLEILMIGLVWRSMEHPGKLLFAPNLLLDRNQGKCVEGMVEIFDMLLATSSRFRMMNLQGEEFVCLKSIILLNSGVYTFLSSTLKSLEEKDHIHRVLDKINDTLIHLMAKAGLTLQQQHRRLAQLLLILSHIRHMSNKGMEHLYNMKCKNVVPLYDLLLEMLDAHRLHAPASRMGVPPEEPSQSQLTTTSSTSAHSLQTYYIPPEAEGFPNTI
The test is described as follows: Relative binding affinity for the oestrogen receptor, rat uterine cytosol competitive binding assay. As to the method:
For some compounds, cytotoxicity against the MCF-7 human breast cancer cell line was determined. The test methods used were those described by M. G. Rowlands et al., Biochemical Pharmacology 40, 283-289 (1990). The relative binding offinity (RBA) for the oestrogen receptor (ER) was measured in a rat uterine cystosol competitive binding assay as described by A. E. Wakeling, 1987 (Chapter 7 p219-236 in "STEROID HORMONES--A PRACTICAL APPROACH" Eds B. Green and R. E. Leake, IRL Press Ltd, Oxford, UK).

[7] abbreviates: ± SD, read-out: Antagonism of calmodulin dependent cAMP-PDE IC50 ± SD.

The structures appear in SMILES notation. Like-named read-outs stand apart in the source and are kept apart here.

In the case of `CC/C(=C(\c1ccccc1)c1ccc(OCCCN2CCCC2)cc1)c1ccccc1`, the “binding affinity for the oestrogen receptor compared with pyrrolidino tamoxifen itself (n=2)” value in test [1] was “lower binding affinity for the oestrogen receptor”.
Consider `CC/C(=C(\c1ccc(I)cc1)c1ccc(OCCN(C)C)cc1)c1ccccc1` [4-iodotamoxifen], for which the “RBA for rat uterine receptor” value in test [2] was 12.5. Further, the IC50 in test [3] amounted to 7630 ± 60 nM; in test [5] (setting [7]), 2300 ± 420 nM. Further, the “RBA with receptor from calf uterine cytosol” value (shortened to “RBA with receptor”) in test [4] is recorded as 5.
With `C[C@]12CC[C@@H]3c4ccc(O)cc4CC[C@H]3[C@@H]1CC[C@@H]2O` [17β-estradiol], the “RBA with receptor” value in test [4] is 100.
For the compound `CC/C(=C(\c1ccc(I)cc1)c1ccc(OCCN2CCCC2)cc1)c1ccccc1` [Idoxifene], in test [2], the “RBA for rat uterine receptor” value is reported as 12.5. Moreover, the half-maximal inhibitory concentration (IC50) amounted to 7270 ± 380 nM in test [3] and 1450 ± 80 nM in test [5] (setting [7]). Also, in test [4], the “RBA with receptor” value is 5.
Consider `CC/C(=C(\c1ccccc1)c1ccc(OCCN(C)C)cc1)c1ccccc1` [Tamoxifen], for which the “RBA for rat uterine receptor” value in test [2] is 5. The IC50 worked out at 14000 ± 1000 nM in test [3] and 6750 ± 1060 nM in test [5]. Besides, in test [4], the “RBA with receptor” value is on record as 1.
As for `CC/C(=C(\c1ccc(I)cc1)c1ccc(OCCCN2CCCC2)cc1)c1ccccc1` [n = 3, NR^1 = R^2 = pyrrolidino, E-1-(4-(3-(N-pyrrolidino)propoxy)phenyl)-1-(4-iodophenyl)-2-phenyl-1-butene], the IC50 in test [3] amounted to 4500 ± 70 nM; in test [5] (setting [7]), 1110 ± 70 nM. The “Binding affinity for ER, RBA” value in test [6] came to 23.
In the case of `CC/C(=C(\c1ccc(I)cc1)c1ccc(OCCCN(C)C)cc1)c1ccccc1` [n = 3, R^1 = R^2 = CH3, E-1-(4-(3-(Dimethylamino)propoxy)phenyl)-1-(4-1iodophenyl)-2,phenyl-1-butene], the half-maximal inhibitory concentration (IC50) in test [5] (setting [7]) worked out at 2020 ± 170 nM.
In the case of `CC/C(=C(\c1ccc(I)cc1)c1ccc(OCCCCN2CCCC2)cc1)c1ccccc1` [n = 4, NR^1 = R^2 = pyrrolidino, E-1(4-(4-(N-pyrrolidino)butoxy)phenyl)-1-(4-iodophenyl)-2-phenylbutene], the IC50 stood at 3990 ± 600 nM in test [3] and 1010 ± 80 nM in test [5] (setting [7]). Also, in test [6], the “Binding affinity for ER, RBA” value turned out to be 9.
As for `CC/C(=C(\c1ccc(I)cc1)c1ccc(OCCCCN(C)C)cc1)c1ccccc1` [n = 4, R^1 = R^2 = CH3, E-1-(4-(4-(Dimethylamino)butoxy)phenyl)-1-(4-iodophenyl)-2-phenyl-1-butene], in test [5] (setting [7]), the IC50 is 2250 ± 180 nM. Also, in test [6], the “Binding affinity for ER, RBA” value is 25.
Turning to `CC/C(=C(\c1ccc(I)cc1)c1ccc(OCCCCCCCCN2CCCC2)cc1)c1ccccc1` [n = 8, NR^1 = R^2 = pyrrolidino], the concentration for half-maximal inhibition (IC50) in test [5] (setting [7]) is 260 ± 50 nM. In addition, in test [6], the “Binding affinity for ER, RBA” value is given as 4.
